Data published in patent US8999664B2, “Method of improving salmon meat color” (JX Nippon Oil & Energy Corporation, priority 2006, dated 2015).

Legend:
[1] = tested on: silver salmons (Oncorhynchus kisutch); test: Cultivation of silver salmon with carotenoid feed: fish weight and flesh color by spectrometer; assay type: in vivo
Description: The flesh color of a landed salmon can be quantified with the L*a*b* color system by measuring the color using a spectrometer. L* represents the luminance, a* represents the chroma red, and b* represents chroma yellow. A higher value of a*/b* represents a color more reddish than orangish, and a lower value of a*/b* represents a color more orangish than reddish. […] 300 silver salmons (Oncorhynchus kisutch) each weighing about 200 g were cultivated as a test division of being fed with the above-described fermented product, and another 300 silver salmons each weighing about 200 g were cultivated as a test division of being fed with the above-described synthetic product. The salmons were fed in satiation in a marine fish pen for 6 months. After the 6 months of cultivating, 10 fish of each test division were weighed. […] The fish were immediately killed by cutting medulla and frozen for preservation. After being thawed, the fish flesh was milled by a coffee mill, and a part thereof was put into a polyethylene bag to measure the color tone thereof by a spectrometer CM-508i (Minolta). […] From a part of the milled fish flesh, the carotenoid colorant was extracted, and analyzed in terms of the content of each carotenoid compound by HPLC.

[2] = tested on: rainbow trouts (Oncorhynchus mykiss); test: Cultivation of rainbow trout with carotenoid feed: fish weight and flesh color by spectrometer; assay type: in vivo
Description: The flesh color of a landed salmon can be quantified with the L*a*b* color system by measuring the color using a spectrometer. L* represents the luminance, a* represents the chroma red, and b* represents chroma yellow. A higher value of a*/b* represents a color more reddish than orangish, and a lower value of a*/b* represents a color more orangish than reddish. […] 50 rainbow trouts (Oncorhynchus mykiss) each weighing about 100 g were cultivated in a water tank as a test division of being fed with the above-described fermented product, and another 50 rainbow trouts each weighing about 100 g were cultivated in a water tank as a test division of being fed with the above-described synthetic product. The trouts of each test division were fed in satiation in fresh water for 3 months. After the 3 months of cultivating, 12 fish of each test division were weighed. […] The fish were immediately killed by cutting medulla. […] After the measurement, the fish flesh was frozen for preservation. After being thawed, the fish flesh of the 12 fish of each test division was analyzed in terms of the content of each carotenoid compound.

[3] = tested on: king salmons (Oncorhynchus tshawytscha); test: Cultivation of king salmon with carotenoid feed: fish weight and flesh color by spectrometer; assay type: in vivo
Description: The flesh color of a landed salmon can be quantified with the L*a*b* color system by measuring the color using a spectrometer. L* represents the luminance, a* represents the chroma red, and b* represents chroma yellow. A higher value of a*/b* represents a color more reddish than orangish, and a lower value of a*/b* represents a color more orangish than reddish. […] 100 king salmons (Oncorhynchus tshawytscha) each weighing about 200 g were cultivated as a test division of being fed with the above-described fermented product, and another 100 king salmons each weighing about 200 g were cultivated as a test division of being fed with the above-described synthetic product. The salmons were fed in satiation in a marine fish pen for 3 months. After the 3 months of cultivating, 15 fish of each test division were sampled and weighed. […] The fish were immediately killed by cutting medulla. […] After the measurement, the fish flesh was frozen for preservation for 1 month. After being thawed, the fish flesh of the fish of each test division was analyzed in terms of the content of each carotenoid compound.

[4] = tested on: Atlantic salmons (Salmo salar); test: Cultivation of Atlantic salmon with carotenoid feed: fish weight and flesh color by spectrometer; assay type: in vivo
Description: The flesh color of a landed salmon can be quantified with the L*a*b* color system by measuring the color using a spectrometer. L* represents the luminance, a* represents the chroma red, and b* represents chroma yellow. A higher value of a*/b* represents a color more reddish than orangish, and a lower value of a*/b* represents a color more orangish than reddish. […] 400 Atlantic salmons (Salmo salar) each weighing about 300 g were cultivated as a test division of being fed with the above-described fermented product, and another 400 Atlantic salmons each weighing about 300 g were cultivated as a test division of being fed with the above-described synthetic product. The salmons were fed in satiation in a marine fish pen for 12 months. After the 12 months of cultivating, 20 fish of each test division were landed and weighed. […] The fish were immediately killed by cutting medulla, and the fish flesh was measured in terms of the color tone by a spectrometer. […] After the measurement, the fish flesh was frozen for preservation for 1 month. After being thawed, the fish flesh of the 20 fish of each test division was analyzed in terms of the content of each carotenoid compound.

[5] = Carotenoid content in fish flesh of silver salmon by HPLC; assay type: in vivo, Oncorhynchus kisutch; conditions: 6 months; for Ratio to astaxanthin: silver salmon fish flesh; for Content in fish flesh: silver salmon, average of 10 fish
Procedure: In the examples, the quantification of the carotenoid colorant was performed using high performance liquid chromatography (HPLC). Two columns of Wakosil-II 5 SIL-100 φ4.6×250 mm (produced by Wako Pure Chemical Industries, Ltd.) were connected to each other. An n-hexane:tetrahydrofuran:methanol (40:20:1) mixed solution was used as a mobile phase. A constant room temperature and a flow rate of 1.0 ml/min were used. The detection was performed at a wavelength of 470 nm. The feed or fish flesh was milled, and then the colorant was extracted with a tetrahydrofuran:methanol (20:1) mixed solution. The colorant was appropriately diluted with the mobile phase and analyzed by HPLC. 300 silver salmons (Oncorhynchus kisutch) each weighing about 200 g were cultivated as a test division of being fed with the above-described fermented product, and another 300 silver salmons each weighing about 200 g were cultivated as a test division of being fed with the above-described synthetic product. The salmons were fed in satiation in a marine fish pen for 6 months. After the 6 months of cultivating, 10 fish of each test division were weighed. […] The fish were immediately killed by cutting medulla and frozen for preservation. After being thawed, the fish flesh was milled by a coffee mill, and a part thereof was put into a polyethylene bag to measure the color tone thereof by a spectrometer CM-508i (Minolta). […] From a part of the milled fish flesh, the carotenoid colorant was extracted, and analyzed in terms of the content of each carotenoid compound by HPLC.

[6] = Carotenoid content in fish flesh of Atlantic salmon by HPLC; assay type: in vivo, Salmo salar; conditions: 12 months; for Ratio to astaxanthin: Atlantic salmon fish flesh; for Content in fish flesh: Atlantic salmon, flesh frozen 1 month, average of 20 fish
Procedure: In the examples, the quantification of the carotenoid colorant was performed using high performance liquid chromatography (HPLC). Two columns of Wakosil-II 5 SIL-100 φ4.6×250 mm (produced by Wako Pure Chemical Industries, Ltd.) were connected to each other. An n-hexane:tetrahydrofuran:methanol (40:20:1) mixed solution was used as a mobile phase. A constant room temperature and a flow rate of 1.0 ml/min were used. The detection was performed at a wavelength of 470 nm. The feed or fish flesh was milled, and then the colorant was extracted with a tetrahydrofuran:methanol (20:1) mixed solution. The colorant was appropriately diluted with the mobile phase and analyzed by HPLC. 400 Atlantic salmons (Salmo salar) each weighing about 300 g were cultivated as a test division of being fed with the above-described fermented product, and another 400 Atlantic salmons each weighing about 300 g were cultivated as a test division of being fed with the above-described synthetic product. The salmons were fed in satiation in a marine fish pen for 12 months. After the 12 months of cultivating, 20 fish of each test division were landed and weighed. […] The fish were immediately killed by cutting medulla, and the fish flesh was measured in terms of the color tone by a spectrometer. […] After the measurement, the fish flesh was frozen for preservation for 1 month. After being thawed, the fish flesh of the 20 fish of each test division was analyzed in terms of the content of each carotenoid compound.

[7] = Carotenoid content in fish flesh of rainbow trout by HPLC; assay type: in vivo, Oncorhynchus mykiss; conditions: 3 months; for Ratio to astaxanthin: rainbow trout fish flesh; for Content in fish flesh: rainbow trout, average of 12 fish
Procedure: In the examples, the quantification of the carotenoid colorant was performed using high performance liquid chromatography (HPLC). Two columns of Wakosil-II 5 SIL-100 φ4.6×250 mm (produced by Wako Pure Chemical Industries, Ltd.) were connected to each other. An n-hexane:tetrahydrofuran:methanol (40:20:1) mixed solution was used as a mobile phase. A constant room temperature and a flow rate of 1.0 ml/min were used. The detection was performed at a wavelength of 470 nm. The feed or fish flesh was milled, and then the colorant was extracted with a tetrahydrofuran:methanol (20:1) mixed solution. The colorant was appropriately diluted with the mobile phase and analyzed by HPLC. 50 rainbow trouts (Oncorhynchus mykiss) each weighing about 100 g were cultivated in a water tank as a test division of being fed with the above-described fermented product, and another 50 rainbow trouts each weighing about 100 g were cultivated in a water tank as a test division of being fed with the above-described synthetic product. The trouts of each test division were fed in satiation in fresh water for 3 months. After the 3 months of cultivating, 12 fish of each test division were weighed. […] The fish were immediately killed by cutting medulla. […] After the measurement, the fish flesh was frozen for preservation. After being thawed, the fish flesh of the 12 fish of each test division was analyzed in terms of the content of each carotenoid compound.

[8] = Carotenoid content in fish flesh of king salmon by HPLC; assay type: in vivo, Oncorhynchus tshawytscha; conditions: 3 months; for Ratio to astaxanthin: king salmon fish flesh; for Content in fish flesh: king salmon, flesh frozen 1 month, average of 15 fish
Procedure: In the examples, the quantification of the carotenoid colorant was performed using high performance liquid chromatography (HPLC). Two columns of Wakosil-II 5 SIL-100 φ4.6×250 mm (produced by Wako Pure Chemical Industries, Ltd.) were connected to each other. An n-hexane:tetrahydrofuran:methanol (40:20:1) mixed solution was used as a mobile phase. A constant room temperature and a flow rate of 1.0 ml/min were used. The detection was performed at a wavelength of 470 nm. The feed or fish flesh was milled, and then the colorant was extracted with a tetrahydrofuran:methanol (20:1) mixed solution. The colorant was appropriately diluted with the mobile phase and analyzed by HPLC. 100 king salmons (Oncorhynchus tshawytscha) each weighing about 200 g were cultivated as a test division of being fed with the above-described fermented product, and another 100 king salmons each weighing about 200 g were cultivated as a test division of being fed with the above-described synthetic product. The salmons were fed in satiation in a marine fish pen for 3 months. After the 3 months of cultivating, 15 fish of each test division were sampled and weighed. […] The fish were immediately killed by cutting medulla. […] After the measurement, the fish flesh was frozen for preservation for 1 month. After being thawed, the fish flesh of the fish of each test division was analyzed in terms of the content of each carotenoid compound.

[9] = milled thawed fish flesh, spectrometer CM-508i, 6 months, average of 10 fish
[10] = flesh color by spectrometer, 3 months, average of 12 fish
[11] = flesh color by spectrometer, 3 months, average of 15 fish
[12] = flesh color tone by spectrometer, 12 months, average of 20 fish

Row | Molecule | Ratio to astaxanthin ([5]; Fermented product division) | Content in fish flesh ([5]; Fermented product division) | Content in fish flesh ([5]; Synthetic product division) | Ratio to astaxanthin ([6]; Fermented product division) | Content in fish flesh ([6]; Fermented product division) | Content in fish flesh ([6]; Synthetic product division) | Ratio to astaxanthin ([7]; Fermented product division) | Content in fish flesh ([7]; Fermented product division) | Content in fish flesh ([7]; Synthetic product division) | Ratio to astaxanthin ([8]; Fermented product division) | Content in fish flesh ([8]; Fermented product division) | Content in fish flesh ([8]; Synthetic product division) | also measured
1 | CC1=C(/C=C/C(C)=C/C=C/C(C)=C/C=C/C=C(C)/C=C/C=C(C)/C=C/C2=C(C)C(=O)[C@@H](O)CC2(C)C)C(C)(C)C[C@H](O)C1=O [Synthetic product, astaxanthin] | – | – | – | – | – | – | – | – | – | – | – | – | Fish flesh color exhibited ([1]; 6 months of cultivating): unnatural red color; L* value (luminance) [1, 9]: 55.6; a* value (chroma red) [1, 9]: 26.0; b* value (chroma yellow) [1, 9]: 26.2; a*/b* ([1]; milled thawed fish flesh, spectrometer, 6 months, average of 10 fish): 0.99; Fish flesh color exhibited ([2]; 3 months of cultivating): reddish orange color close to a red color; L* value (luminance) [2, 10]: 41.8; a* value (chroma red) [2, 10]: 9.1; a*/b* [2, 10]: 0.66; b* value (chroma yellow) [2, 10]: 13.8; Fish flesh color exhibited ([3]; 3 months of cultivating): reddish orange color close to a red color; L* value (luminance) [3, 11]: 50.8; a* value (chroma red) [3, 11]: 23.7; a*/b* [3, 11]: 0.93; b* value (chroma yellow) [3, 11]: 25.5; Fish flesh color exhibited ([4]; 12 months of cultivating): reddish orange color with a high level of chroma red; L* value (luminance) [4, 12]: 50.0; a* value (chroma red) [4, 12]: 26.2; a*/b* [4, 12]: 0.94; b* value (chroma yellow) [4, 12]: 27.9
2 | CC1=C(/C=C/C(C)=C/C=C/C(C)=C/C=C/C=C(C)/C=C/C=C(C)/C=C/C2=C(C)CCCC2(C)C)C(C)(C)CCC1 [β-carotin] | 0.2 or less % | 0.02 or less mg/kg | 0.02 or less mg/kg | 0.5 or less % | 0.02 or less mg/kg | 0.02 or less mg/kg | 0.6 or less % | 0.02 or less mg/kg | 0.02 or less mg/kg | 0.5 or less % | 0.02 or less mg/kg | 0.02 or less mg/kg | –
3 | Asteroidenone | 1.9% | 0.2 mg/kg | 0.02 or less mg/kg | 2.4% | 0.1 mg/kg | 0.02 or less mg/kg | 2.9% | 0.1 mg/kg | 0.02 or less mg/kg | 2.2% | 0.1 mg/kg | 0.02 or less mg/kg | –
